Reference: US8461360B2, “Process for producing γ -mangostin” (Laila Nutraceuticals, priority 2008, dated 2013)

Tests used:
[1] = Superoxide radical scavenging activity (NBT method); assay type: biochemical; conditions: riboflavin/NBT, 560 nm
Experimental: Superoxide radical scavenging activity of test substances was determined by the method of McCord and Fridovich (J. Biol. Chem., 244, 6049, 1969). The assay mixture contained EDTA (6.6 mM containing 3 μg NaCN), riboflavin (2 μM), NBT (50 μM), phosphate buffer (67 mM, pH 7.8) in a final volume of 3 mL and various concentrations of test substances. The tubes were mixed well and optical densities were measured at 560 nm. The tubes were uniformly illuminated with an incandescent lamp for 15 min. and the optical densities were measured again at 560 nm. The percentage inhibition of superoxide radical generation was measured by comparing the absorbance values of control and those of the test substances. The IC50 values were obtained from the plot drawn of the concentration (μg) verses percentage inhibition.

[2] = DPPH free radical scavenging activity; assay type: biochemical; conditions: methanolic DPPH solution
Experimental: DPPH free radical scavenging activity was measured by the method of Lamaison, et al., (Pharma Acta Helv. 1991; 66:185) based on the reduction of colored methanolic solution of the DPPH. Free radical scavenging ability of each test substances added to the methanolic solution of DPPH was inversely proportional to the difference in initial and final absorption of DPPH solution at […] Antioxidant activity is expressed as the 50% inhibitory concentration (IC50). The reaction mixture contained 1×10^−4 mM methanolic solution of DPPH and various concentrations of the test substances. Percentage inhibition was determined by comparing the absorbance values of test and control tubes. The IC50 values were obtained from the plot drawn of the concentration (μg) verses percentage inhibition.

IKK = conditions: Biochem. Pharmacol. reference; cited from earlier work
[3] = test system: aP2 (Adipocyte fatty acid binding protein); assay: Down-regulation of aP2 protein expression in LPS induced THP-1 derived macrophages (Western blot); assay type: cell-based, human; conditions: 5 μg/ml pre-treatment 2 h, LPS 100 ng/ml 16 h, normalized with actin
Experimental: Down-regulation of aP2 protein expression by γ-mangostin and α-mangostin was evaluated in a cell based in vitro model. Briefly, equal number of THP-1 monocyte cells were plated in 40 mm tissue culture petri-dishes and the cells were differentiated to macrophages by treatment with 10 nM Phorbol myristate acetate (PMA) for 24 h. The attached cells in the culture dishes were washed with serum free and phenol red free DMEM; and the differentiated macrophage cells were pre-treated for 2 h with 5 μg/ml of either γ-mangostin or α-mangostin or 0.1% DMSO in serum free DMEM supplemented with 2% BSA. Thereafter, the cells were primed with 100 ng/ml of LPS for 16 h to induce the inflammatory response. The 0.1% DMSO treated cells without LPS treatment were considered as vehicle control. […] The protein content was measured by Coomassie blue based Bradford method and equal amount of cellular protein lysates (2 μg) was resolved in 15% SDS-Polyacrylamide gels. […] The aP2 protein expression was specifically detected by chemiluminescent substrate (Pierce, USA); detection of chemiluminescent bands and densitometric analyses were carried out on Kodak 4000 MM image station (supplied by Kodak, USA). The same nitrocellulose blots were stripped and re-probed with anti-actin antibody (Sigma Chemical CO, USA) and actin protein expression was recorded as an indication of equal protein loading in each, lane. […]

potato 5-lipoxygenase = assay: 5-Lipoxygenase enzyme inhibitory activity; assay type: biochemical; conditions: 80 μM linoleic acid, pH 6.3, absorbance 234 nm
Experimental: 5-Lipoxygenase enzyme inhibitory activity was measured using the method of Schewe, et. al. (Adv Enzymol, Vol 58: pp 191-272, 1986), that was modified by Reddanna, et. al., (Methods of Enzymology, Vol 187: pp 268-277, 1990). The assay mixture contained 80 μM linoleic acid and sufficient amount of potato 5-lipoxygenase in 50 mM phosphate buffer (pH 6.3). The reaction was initiated by the addition of enzyme buffer mix to linoleic acid and the enzyme activity was monitored as the increase in absorbance at 234 nm. The reaction was monitored for 120 sec and the inhibitory potential of the test substances was measured by incubating various concentrations of test substances α-mangostin and γ-mangostin two minutes before the addition of linoleic acid. All assays were performed three times. The IC50 values were calculated from the plot drawn of the concentrations of test substances versus percentage inhibition.

[4] = test system: Freund Complete Adjuvant induced arthritis; assay: Freund Complete Adjuvant induced arthritis model, paw edema; assay type: in vivo, Sprague Dawley rats; conditions: prednisolone 10 mg/kg body weight for 14 days, positive control; vs CMC control
Experimental: The anti-inflammatory efficacies of α-mangostin and γ-mangostin were evaluated by an in vivo study in Freund Complete Adjuvant induced arthritis model of Sprague Dawley rats. The rats of either sex were randomly selected and divided into […] containing five animals in each group. The treatment group rats were supplemented with 25 mg/kg body weight of α-mangostin or γ-mangostin, or prednisolone (10 mg/kg body weight) for 14 days. The animals of control group received similar volume of 1% CMC only. At the 14 th day, Freund Complete Adjuvant (FCA) was injected subcutaneously in the sub-plantar region of the left hind paw of each animal. At the end of experiment, the animals were sacrificed and liver tissue samples were excised and stored in aliquot at −80° C. Blood samples were collected from each animal at a regular interval and paw volumes were measured by Plethysmography equipment at the day of FCA injection and after 13 days of FCA inoculation. The difference in volume of edema at the day of FCA injection and at 13th day after induction is considered as the inflammatory response. The in vivo anti-inflammatory response of α-mangostin, γ-mangostin and prednisolone was estimated by calculating the percentage of inhibition of paw edema when compared with the CMC supplemented control.

Row | SMILES | NBT method IC50 [1] [µg/mL] | DPPH method IC50 [2] [µg/mL] | inhibition of IKK activity (IKK) | inhibition of aP2 protein expression [3] | 5-Lipoxygenase inhibitory activity IC50 values (potato 5-lipoxygenase) [µg/mL] | inhibition of paw edema [4] [%]
1 | CC(C)=CCc1c(O)cc2oc3cc(O)c(O)c(CC=C(C)C)c3c(=O)c2c1O [γ-Mangostin, 2,8-bis[(2E)-3-methylbut-2-only)-1,3,6,7-tetrahydroxyxanthen-9-one] | 8.7 | 9.7 | directly inhibits IKK activity | more potent inhibitor of aP2 in vitro compared to α-mangostin | 0.5 | –
2 | C[C@]12C=CC(=O)C=C1CC[C@@H]1[C@@H]2[C@@H](O)C[C@@]2(C)[C@H]1CC[C@]2(O)C(=O)CO [prednisolone] | – | – | – | – | – | 54
3 | O=C1O[C@H]([C@@H](O)CO)C(O)=C1O [Vitamin C] | 123.6 | 3.7 | – | – | – | –
4 | COc1c(O)cc2oc3cc(O)c(CC=C(C)C)c(O)c3c(=O)c2c1CC=C(C)C [α-Mangostin, 1,3,6-trihydroxy-7-methoxy-2,8-bis-(3-methyl-but-2-only) -xanthen-9-one] | 61.8 | >100 | – | inhibition of aP2 protein expression | 2.7 | –
